Data from patent publication US5767269A, “Processes for the preparation of low-affinity, low molecular weight heparins useful as antithrombotics” (Hamilton Civic Hospitals Research Development Inc., priority 1996, dated 1998).

Columns and labels:
[1] = test system: fluid-phase thrombin; assay: Thrombin clotting time of plasma from blood of the extracorporeal circuit; assay type: biochemical, human
Excerpt: (§1) The inactivation of surface-bound thrombin and fluid-phase thrombin can be measured simultaneously using this system. More particularly, inactivation of surface-bound thrombin is quantified by recording the delay in clotting of the circuit. This delay is contributed to, albeit to a lesser extent, by the inactivating effect of the anticoagulant on fluid phase thrombin, whose generation is potentiated by the clot-bound thrombin. Inactivation of fluid phase thrombin is quantified by recording the thrombin clotting time of plasma prepared from blood removed from the circuit just before recalcification.

[2] = test system: surface-bound thrombin; assay: Extracorporeal recirculation circuit: clotting of the filter in recalcified human whole blood; conditions: concentrations which prolong the thrombin clotting time to over 500 seconds (10 to 20 U/ml)
Protocol: The circuit consists of Tygon tubing (3/16"×1/16") connected to a 40 micron transfusion filter (Pall SQ40S). The system includes 3-way stopcocks for blood sampling. A surgical pressure transducer connected to a pressure recorder (Hewlett-Packard) is connected in line with the filter so that clotting of the filter causes a steady increase in pressure. Citrated whole blood taken from normal, healthy volunteers is used. The circuit is filled with 50 ml of whole blood placed in a reservoir and kept in a waterbath maintained at 37° C. The anticoagulant to be tested is added to the circuit, clotting is initiated by recalcification (0.8 ml of 1.0M CaCl2), and the blood is recirculated at a constant flow rate through the thrombogenic surface using a roller head pump (Cole-Parmer MFLX modular drive with a large F/6 roll head cartridge). Thrombosis of the filter is monitored by a change in pressure in a gauge inserted into the circuit, proximal to the filter. […]
as §1, with “This delay is contributed to, albeit to a lesser extent, by the inactivating effect of the anticoagulant on fluid phase thrombin, whose generation is potentiated by the clot-bound thrombin.” left out

Substance: Hirudin
- TCT ([1]; 10 U/mL (Table 3)): > 500 s
- TCT ([1]; 20 U/ml (Table 3)): > 500 s
- prevention of thrombosis in the circuit compared with LA-LMWH [2]: much less effective at preventing thrombosis in the circuit
